Experimental data from PubChem BioAssay (NCI).
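Following 48 hours of exposure in 96-well plates, responses at five concentrations were used to interpolate endpoints linearly. TGI is the concentration that stops growth completely.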

Legend:
Test in all cases: NCI anticancer screen, dose series, 48 h
[1] = test system: A549 NSCLC
[2] = test system: LOX IMVI melanoma
[3] = test system: PC-3 prostate
[4] = test system: CAKI-1 renal
[5] = test system: UACC-257 melanoma
[6] = test system: MCF7 breast
[7] = test system: EKVX NSCLC
[8] = test system: SNB-78 CNS
[9] = test system: DMS 273 small cell lung
[10] = test system: XF 498 CNS
[11] = test system: DLD-1 colon
[12] = test system: M19-MEL melanoma
[13] = test system: DMS 114 small cell lung
[14] = test system: LXFL 529 NSCLC
[15] = test system: KM20L2 colon

| Compound | TGI [1] [µM] | TGI [2] [µM] | TGI [3] [µM] | TGI [4] [µM] | TGI [5] [µM] | TGI [6] [µM] | TGI [7] [µM] | TGI [8] [µM] | TGI [9] [µM] | TGI [10] [µM] | TGI [11] [µM] | TGI [12] [µM] | TGI [13] [µM] | TGI [14] [µM] | TGI [15] [µM] |
| --- | --- | --- | --- | --- | --- | --- | --- | --- | --- | --- | --- | --- | --- | --- | --- |
| Oc1ccc2ccccc2c1-c1c(Nc2ccccc2)ccc2ccccc12 | 38.9 | 48.5 | 36.8 | 28.1 | 40.3 | > 42.7 | 40 | – | – | – | – | – | – | – | – |
| O=C(N1CCOCC1)C1(c2ccccc2)CCNCC1 | > 100 | > 100 | > 100 | > 100 | > 100 | > 100 | > 100 | – | – | – | – | – | – | – | – |
| COc1ccc(-c2nc(N(C)C)c3ccccc3n2)cc1 | 46.8 | 28.8 | 58.8 | > 100 | 32.6 | 24.1 | 22.3 | – | – | – | – | – | – | – | – |
| COc1cc(C2SCC(=O)N2c2ccc(-c3ccc(-n4c(-c5ccccc5)nc5ccccc5c4=O)cc3)cc2)ccc1O (stereo unspecified) | > 100 | > 100 | > 100 | > 100 | > 100 | > 100 | > 100 | – | – | – | – | – | – | – | – |
| O=C1NCC2(CCN(Cc3ccccc3)CC2)N1 | > 100 | > 100 | > 100 | > 100 | > 100 | > 100 | > 100 | – | – | – | – | – | – | – | – |
| Cc1nc2c(O)cccc2c(=O)[nH]1 | > 1000 | > 1000 | > 1000 | > 1000 | > 1000 | > 1000 | > 1000 | – | – | – | – | – | – | – | – |
| O=C(CC(=O)N(C(=O)c1ccccc1)c1ccc(Cl)cc1)N/N=C\c1ccccc1O | > 100 | > 100 | > 100 | > 100 | > 100 | > 100 | > 100 | – | – | – | – | – | – | – | – |
| Brc1ccccc1/C=C\C1(c2ccccc2)OCCO1 | 32.8 | 11.6 | 34.1 | 16.3 | 34.5 | 18.1 | 30.6 | – | – | – | – | – | – | – | – |
| COc1ccc(OC)c(C2CCCc3c2cnc2nc(N)nc(N)c32)c1 (stereo unspecified) | > 100 | > 100 | > 100 | > 100 | > 100 | 0.017 | > 100 | – | – | – | – | – | – | – | – |
| COc1c(C(=O)/C(=N/Nc2ccccc2)C(C)=O)c(O)c(OC)c2occc12 | > 100 | > 100 | > 100 | > 100 | > 100 | > 100 | > 100 | – | – | – | – | – | – | – | – |
| Cc1ccc(S(=O)(=O)NC(=O)C2(Br)S(=O)(=O)OCCOS2(=O)=O)cc1 | > 100 | > 100 | – | – | > 100 | – | > 100 | > 100 | > 100 | > 100 | > 100 | > 100 | > 100 | > 100 | > 100 |
| CCN(CC)CCCC(C)NC(=O)c1cc(-c2nccn2C)nc2ccc(C)cc12 (stereo unspecified) | > 100 | > 100 | > 100 | > 100 | > 100 | > 100 | > 100 | – | – | – | – | – | – | – | – |
| COc1ccc(-c2nc(N)c(C#N)c3c2CCSc2ccc(C)cc2-3)cc1OC | > 100 | > 50.2 | > 100 | > 70.5 | > 76.2 | 63.5 | > 85.3 | – | – | – | – | – | – | – | – |
| OC(c1ccsc1)c1cc2ccccc2s1 (stereo unspecified) | > 10 | > 10 | > 10 | > 10 | > 10 | > 10 | > 10 | – | – | – | – | – | – | – | – |
| CC(C)=CCC[C@](C)(O)[C@H]1CC[C@]2(C)[C@@H]1[C@H](O)C[C@@H]1[C@@]3(C)CC[C@H](O[C@@H]4O[C@H](CO)[C@@H](O)[C@H](O)[C@H]4O)C(C)(C)[C@@H]3CC[C@]12C | 37.7 | 91.5 | 31.9 | 34.2 | 41.1 | 32.2 | 39.4 | – | – | – | – | – | – | – | – |
| CC(=O)c1c2c(cc3c1CC1(Cc4cc5c(cc4C1=O)CCC5)C3)CCC2 (stereo unspecified) | > 100 | > 100 | > 100 | > 100 | > 100 | > 100 | > 100 | – | – | – | – | – | – | – | – |
| CCCCCCc1cc2cc(C(=O)Nc3ccccc3F)c(=N)oc2cc1O | 26.9 | 19.4 | 26.8 | 22.9 | 42.2 | 39.1 | 32.3 | – | – | – | – | – | – | – | – |
| NCCCCC(N)C(=O)N1CCN(c2nc(N3CCCC3)c3nc(Cl)c(NCc4ccccc4)nc3n2)CC1 (stereo unspecified) | 37.3 | 35.9 | 32.1 | 91.8 | 35.5 | 38.1 | 36 | – | – | – | – | – | – | – | – |
